In one data set the test system is C. glabrata JCM3761. Briefly: iHOPE antimicrobial microdilution assay (turbidity OD600). In kind it is cell-based, Candida glabrata. To be noted: Nakaseomyces glabratus, read-out: IC50 against C. glabrata JCM3761. On the technique in general: Broth dilution looks for growth in wells or tubes with falling amounts of substance.
A further data set concerns A. fumigatus Af293. As to the kind of experiment: iHOPE antimicrobial microdilution assay. The format is cell-based, Aspergillus fumigatus. To be noted: Aspergillus fumigatus.
A further data set deals with C. auris Ci6684. Briefly: iHOPE antimicrobial microdilution assay (turbidity OD600). In kind it is cell-based, Candida auris. To be noted: Candidozyma auris, read-out: IC50 against C. auris Ci6684.
The nature of data set [1]: iHOPE in vitro cytotoxicity assessment (Cell Count Reagent SF). In kind it is cell-based, human. The following applies: human.
Experimental: The method for in vitro cytotoxicity assessment using Cell Count Reagent SF (Nacalai Tesque) has been described previously ([15]). […] Test compounds were added to the culture medium, and then the plates were incubated at 28°C for 24 h.
The next data set deals with C. tropicalis JCM1541. Briefly: iHOPE antimicrobial microdilution assay (turbidity OD600). In kind it is cell-based. To be noted: Candida tropicalis, read-out: IC50 against C. tropicalis JCM1541.
The subject of another data set is S. aureus 209P. As to the kind of experiment: iHOPE antimicrobial microdilution assay. The format is cell-based, Staphylococcus aureus. The following applies: Staphylococcus aureus, 209P, read-out: IC50 against S. aureus 209P.
Data set [2] relates to C. albicans JCM1542. The format is cell-based, Candida albicans. The following applies: C. albicans JCM1542, MOPS-RPMI medium, 24 h.
For another data set, the system named is E. coli HO-141. Briefly: iHOPE antimicrobial microdilution assay. The following applies: Escherichia coli. In kind it is cell-based, Escherichia coli.
The next data set relates to P. oryzae Kita-1. As to the kind of experiment: microbe, parasite or virus in culture. The format is cell-based, Pyricularia oryzae. The following applies: Pyricularia oryzae, KITA1, read-out: IC50 against P. oryzae Kita-1.
The next data set has as its system C. auris VPCI673. Briefly: iHOPE antimicrobial microdilution assay (turbidity OD600). In kind it is cell-based, Candida auris. The following applies: Candidozyma auris, read-out: IC50 against C. auris VPCI673.
Data set [3] relates to C. albicans JCM1542. The data set is described as above. In kind it is cell-based, Candida albicans. To be noted: for IC50: read-out: IC50 against C. albicans JCM1542; for antifungal activity / inhibition of budding against C. albicans (in words): C. albicans JCM1542.
Where [4] appears, read: JCM3761, MOPS-RPMI medium, 24 h, SD in parentheses, n = 3.
[5] abbreviates: CI6684, MOPS-RPMI medium, 24 h, SD in parentheses, n = 3.
Where [6] appears, read: JCM1541, MOPS-RPMI medium, 24 h, SD in parentheses, n = 3.
Where [7] appears, read: VPCI673, MOPS-RPMI medium, 24 h, SD in parentheses, n = 3.
[8] abbreviates: Candida albicans, JCM1542, MOPS-RPMI medium, 28°C, 24 h, OD600, standard deviation in parentheses, n = 3.
Where [9] appears, read: SD in parentheses, n = 3, read-out: IC50 against HL-60 RCB0041 (cytotoxicity).
The mark [10] stands for this setting: Candida albicans, JCM1542, 24 h.

Read-outs that look alike come from different tables or passages of the source. Numbered stars: 1 amine (or outer) side, 2 acyl side, 3 side chain; on linkers, the order of the positions; unused ones are H or OH. Bridge positions count the residues as written; N and C are the ends. Square brackets hold non-standard residues; d marks the D form. Peptide text beside a SMILES is read from it. * marks the point of attachment. hTyr(3S-OH,4S-OH,3'-OSO3H) = N[C@H](C(=O)O)[C@H](O)[C@@H](O)c1ccc(O)c(OS(=O)(=O)O)c1; Orn(4R-OH,5R-OH) = O=C([C@H](C[C@@H](O)[C@@H](O)N[*:3])N[*:1])[*:2]; Pro(3S-OH,4S-Me) = C[C@H]1CN[C@H](C(=O)O)[C@H]1O; X1 = CCCCCOc1ccc(-c2cc(-c3ccc(C(=O)*)cc3)no2)cc1; Gln(3R-OH) = NC(=O)C[C@@H](O)[C@H](N)C(=O)O; Hyp = O=C(O)[C@@H]1C[C@@H](O)CN1

A word on the IC50: it is the concentration needed to halve the response being measured.

Consider `Nc1nc(=O)[nH]cc1F` [5-FC, 5-fluorocytosine], for which the IC50 with C. glabrata JCM3761 (setting [4]) is 81 nM; in the data set with A. fumigatus Af293 (AF293, SD in parentheses, n = 3, read-out: IC50 against A. fumigatus Af293), 15000 nM; in the data set on C. auris Ci6684 (setting [5]), 370 nM; in data set [1] it was more than 30000 nM; in the data set with C. tropicalis JCM1541 (setting [6]) it was 110 nM; in the data set with S. aureus 209P (SD in parentheses, n = 3), more than 30000 nM. The IC50 with E. coli HO-141 (HO141, SD in parentheses, n = 3, read-out: IC50 against E. coli HO-141) is more than 30000 nM; in the data set with P. oryzae Kita-1, more than 30000 nM; in the data set with C. auris VPCI673 (setting [7]) it was 270 nM; in the data set on C. albicans JCM1542 [3] (setting [8]), 190 nM. In the data set on C. albicans JCM1542 [2], the “morphological change induced in C. albicans” value is on record as “hyphal-rich morphology”.

Turning to `[C-]#[N+][C@@H](C)CC(=O)N[C@H]1CC[C@H](NC(=O)C[C@H](C)[N+]#[C-])CC1` [16b], the IC50 is more than 30000 nM in data set [1] (setting [9]) and 610 nM in the data set with C. albicans JCM1542 [3] (setting [8]).

In the case of `[C-]#[N+][C@@H](C)CC(=O)Nc1cccc(NC(=O)C[C@H](C)[N+]#[C-])c1` [14b], the IC50 was more than 30000 nM in [1] (setting [9]) and 20 nM with C. albicans JCM1542 [3] (setting [8]).

Consider `[C-]#[N+][C@H](C)CC(=O)Nc1ccc(NC(=O)C[C@@H](C)[N+]#[C-])cc1` [13a], for which the IC50 in data set [1] (setting [9]) is more than 30000 nM; in the data set on C. albicans JCM1542 [3] (setting [8]), 410 nM.

On to `CCCC(=O)NCc1ccc(NC(=O)CCC)cc1` [compound 11], for which the IC50 (in data set [1] (setting [9]); in the data set with C. albicans JCM1542 [3] (setting [8])) was more than 30000 nM in each case. Also, the “antifungal activity / inhibition of budding against C. albicans (in words)” value (from here on “antifungal activity / inhibition”) with C. albicans JCM1542 [3] is recorded as “did not mediate any changes in either the survival rate or morphology”.

On to `CCCCCC[C@H]1C(=O)O[C@H](C)[C@H](NC(=O)c2cccc(NC=O)c2O)C(=O)O[C@@H](C)[C@@H]1OC(=O)CC(C)C` [Antimycin A, antimycin A], for which the IC50 in the data set with C. albicans JCM1542 [3] (setting [10]) was determined as 35 nM.

Take `[C-]#[N+][C@H](C)CC(=O)Nc1cccc(NC(=O)C[C@@H](C)[N+]#[C-])c1` [14a]: the IC50 in data set [1] (setting [9]) was more than 30000 nM; with C. albicans JCM1542 [3] (setting [8]), 54 nM.

As to `CCCCCOc1ccc(-c2cc(-c3ccc(C(=O)N[C@H]4C[C@@H](O)[C@@H](O)NC(=O)[C@@H]5[C@@H](O)[C@@H](C)CN5C(=O)[C@H]([C@H](O)CC(N)=O)NC(=O)[C@H]([C@H](O)[C@@H](O)c5ccc(O)c(OS(=O)(=O)O)c5)NC(=O)[C@@H]5C[C@@H](O)CN5C(=O)[C@H]([C@@H](C)O)NC4=O)cc3)no2)cc1` [Micafungin, micafungin] (X1-[Orn(4R-OH,5R-OH)]T[Hyp][hTyr(3S-OH,4S-OH,3'-OSO3H)][Gln(3R-OH)][Pro(3S-OH,4S-Me)]; lactam 1-C), the IC50 with C. glabrata JCM3761 (JCM3761, 24 h) was 4.9 nM; with A. fumigatus Af293 (AF293, read-out: IC50 against A. fumigatus Af293) it was 4 nM; with C. auris Ci6684 (CI6684, 24 h), 29 nM; in data set [1] (setting [9]), more than 30000 nM; in the data set on C. tropicalis JCM1541 (JCM1541, 24 h) it was 5.4 nM; in the data set with S. aureus 209P, more than 30000 nM. The IC50 in the data set with E. coli HO-141 (HO141, read-out: IC50 against E. coli HO-141) is more than 30000 nM; with P. oryzae Kita-1 it was more than 30000 nM; with C. auris VPCI673 (VPCI673, 24 h) it was 27 nM; in the data set with C. albicans JCM1542 [3] (setting [10]), 3.3 nM. Further, the “morphological change induced in C. albicans” value with C. albicans JCM1542 [2] is “yeast-rich morphology”.

As for `[C-]#[N+][C@H](C)CC(=O)NCc1ccc(NC(=O)C[C@@H](C)[N+]#[C-])cc1` [10a], the IC50 was more than 30000 nM in data set [1] (setting [9]) and 380 nM in the data set with C. albicans JCM1542 [3] (setting [8]).

`C/C=C/C(=O)NCc1ccc(N)cc1` [compound 9]: the IC50 (in data set [1] (setting [9]); in the data set with C. albicans JCM1542 [3] (setting [8])) was more than 30000 nM in each case. Moreover, the “antifungal activity / inhibition” value with C. albicans JCM1542 [3] is given as “did not mediate any changes in either the survival rate or morphology”.

As for `[C-]#[N+][C@@H](C)CC(=O)N[C@H]1CC[C@@H](NC(=O)C[C@H](C)[N+]#[C-])CC1` [15b], the IC50 in the data set on C. glabrata JCM3761 (setting [4]) was 10 nM; in the data set with C. auris Ci6684 (setting [5]), 62 nM; in data set [1] (setting [9]), more than 30000 nM; with C. tropicalis JCM1541 (setting [6]) it was 26 nM; with C. auris VPCI673 (setting [7]) it was 34 nM; in the data set on C. albicans JCM1542 [3] (setting [8]) it was 19 nM.

As to `[C-]#[N+][C@@H](C)CC(=O)NCc1ccc(NC(=O)C[C@H](C)[N+]#[C-])cc1` [10b], the IC50 was more than 30000 nM in [1] (setting [9]) and 190 nM in the data set with C. albicans JCM1542 [3] (setting [8]).

As for `[C-]#[N+][C@@H](C)CC(=O)NCc1ccc(N)cc1` [8b], the IC50 in data set [1] (setting [9]) was more than 30000 nM; with C. albicans JCM1542 [3] (setting [8]), 1800 nM. Moreover, the “antifungal activity / inhibition” value in the data set with C. albicans JCM1542 [3] is “weak antifungal activity and inhibition of budding”.

As to oligomycin A, the IC50 in the data set with C. albicans JCM1542 [3] (MOPS-RPMI medium, 28°C, 24 h, OD600, standard deviation in parentheses, n = 3) amounted to 3100 nM.

These data come from article PMC12057359, “Inhibitory effect of copper chelators on the budding in Candida albicans” (Antimicrobial Agents and Chemotherapy, 2025).
